Reference: PMC8605905 (Oxidative Medicine and Cellular Longevity, 2021)

Legend:
[1] = test system: CRE-GFP 293 cells; assay: CRE-GFP 293 reporter cell assay (flow cytometry); type: cell-based, Human; details: 0.5–2 μM for 5 h
Excerpt: Using the pCRE-MetLuc2-Reporter plasmid (Clontech, Mountain View, CA, USA) as a template, the DNA fragment containing the cAMP response element (CRE) motifs and TATA-like promoter (PTAL) flanked by MluI and AgeI restriction sites was amplified by PCR using sense ([…], MluI site underlined) and antisense ([…], AgeI site underlined) primers. The amplified CRE-PTAL promoter fragment was cloned into pGEM-T Easy (Promega, Madison, WI, USA) and sequenced. The CRE-PTAL-containing MluI/AgeI fragment and GFP-containing AgeI/NotI fragment (from pEGFP-N1; Clontech) were subcloned into MluI- and NotI-digested pcDNA5/FRT/TO (Novagen, Madison, WI, USA). The resulting construct with CRE-PTAL-driving GFP was used to establish 293 GFP reporter cells by targeting insertion into Flp-In-293 cells according to the supplier's instructions (Invitrogen). The cells were grown in a medium containing 5 μg/ml blasticidin and 100 μg/ml hygromycin.
(§1) On day 1, CRE-GFP 293 cells were seeded into 48-well plates (5 × 10^4/well). After 24 h, cells were treated with Ca^2+ ionophore (2 μM) (Sigma-Aldrich) for 0–24 h. Cell viability was measured using 3,(4,5-dimethylthiazol-2-yl)-2,5-diphenyltetrazolium bromide (MTT) assay (Sigma-Aldrich). The absorbance of the insoluble purple formazan dye was quantified at 570 nm on a μQuant microplate spectrophotometer (Bio-Tek). In addition, the cells were treated with the Ca^2+ ionophore A23187 (0.5–10 μM) (Sigma-Aldrich) for 5 h, followed by analysis of GFP fluorescence by flow cytometry (Becton–Dickinson, Franklin Lakes, NJ, USA) with excitation/emission wavelengths at 488/507 nm. To monitor CREB activation, cells were treated with forskolin or coumarin-chalcone derivatives (5–10 μM) in the presence or absence of Ca^2+ ionophore (2 μM) for 5 h, and GFP fluorescence was analysed.
To monitor the cAMP-mediated signal transduction pathway, CRE-GFP 293 cells in 6-well plates (1 × 10^6/well) were pretreated with kinase inhibitor H-89 (LC Laboratories, Woburn, MA, USA), KN-62 (Cayman Chemical, Ann Arbor, MI, USA), U0126 (LC Laboratories), or wortmannin (LC Laboratories) (10 μM) for 4 h before forskolin or LM-021 (10 μM) addition for 5 h. GFP fluorescence/protein and total/phosphorylated PKA, CaMKII, ERK, PI3K, and CREB levels were examined. In addition, Aβ-GFP or ∆K280 tauRD-DsRed SH-SY5Y cells were treated with retinoic acid (10 μM) on day 1, followed by the addition of LM-021 (5 or 10 μM) and doxycycline (5 or 2 μg/ml) on day 2, as described. Kinase inhibitors (10 μM) were added on day 6. On day 8, the cells were collected for protein expression analysis of BDNF, BCL2 (BCL2 apoptosis regulator), and BAX (BCL2 associated X, apoptosis regulator), and total/phosphorylated PKA, CaMKII, ERK, PI3K, and CREB. Also, cells were stained with DAPI and assessed for neurite outgrowth as described above.

[2] = test system: CRE-GFP 293 cells; assay: MTT cell viability of CRE-GFP 293 cells; type: cell-based, Human; details: 2 μM for 3–6 h
Protocol: as §1

[3] = in vivo, po; cited from earlier work

Structure (SMILES)	CRE-motif-driven GFP expression [1]	Cell viability (MTT) [2]	Share of orally administered dose that enters the brain [3]
CNc1ccc2oc(C[C@H]3O[C@@]4(CC[C@H]3C)O[C@H]([C@H](C)C(=O)c3ccc[nH]3)[C@H](C)C[C@H]4C)nc2c1C(=O)O [Ca^2+ ionophore]	stimulated	No significant cell death	
N[C@@H](Cc1ccc(O)c(O)c1)C(=O)O [levodopa]			about 1%
